Reference: patent US20250064763A1, “METHODS OF TREATMENT OF PRIMARY BILIARY CHOLANGITIS” (Ipsen Pharma, priority 2023, published 2025)

Assays:
patients with PBC = details: cited from earlier work
subjects with PBC = test: Clinical study of elafibranor, biochemical markers in plasma; details: human, in vivo

## CC[C@H]1[C@@H](O)[C@@H]2[C@H](CC[C@]3(C)[C@@H]([C@H](C)CCC(=O)O)CC[C@@H]23)[C@@]2(C)CC[C@@H](O)C[C@@H]12 [OCA, obeticholic acid]
Patients with PBC; phase III study, OCA groups compared to placebo
  effect on pruritus: exacerbate pruritus
Patients with PBC; post marketing reports, PBC patients with compensated or decompensated cirrhosis
  liver injury: led to hepatic decompensation and liver failure

## CSc1ccc(C(=O)/C=C/c2cc(C)c(OC(C)(C)C(=O)O)c(C)c2)cc1 [elafibranor]
Subjects with PBC
  biochemical markers in the plasma: relevant reduction
